Results: PubChem BioAssay AID330 (DTP/NCI, 2004)
Values joined by “and” are separate entries in the source; they are usually repeats but may differ in a detail not shown here. Equal values may be shown once. Inconclusive results and toxic doses are left out. Rule for the calls: active = survival T/C of 150% or more; inactive = T/C below 125% in these data.

System: P388 leukemia ip, CD2F1 mice, survival T/C
Experiment: NCI In Vivo Anticancer Drug Screen. Data for tumor model P388 Leukemia (intraperitoneal) in CD2F1 (CDF1) mice
Settings: endpoint: median survival time, higher = longer survival
Summary of the method: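 Mice carrying the transplanted tumor received test compound or vehicle. Survival was recorded in each group, and the value is the treated-group measurement divided by that of the vehicle-treated control group.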

[1] = dose: 100.0 mg/kg/injection, schedule: Q01DX009 (ip), vehicle: saline with Tween-80
[2] = dose: 200.0 mg/kg/injection, schedule: Q01DX009 (ip), vehicle: saline with Tween-80
[3] = dose: 50.0 mg/kg/injection, schedule: Q01DX009 (ip), vehicle: saline with Tween-80
[4] = dose: 50.0 mg/kg/injection, schedule: Q01DX005 (ip), vehicle: Klucel (hydroxypropylcellulose) (HPC)
[5] = dose: 100.0 mg/kg/injection, schedule: Q01DX005 (ip), vehicle: Klucel (hydroxypropylcellulose) (HPC)
[6] = dose: 200.0 mg/kg/injection, schedule: Q01DX005 (ip), vehicle: Klucel (hydroxypropylcellulose) (HPC)
[7] = dose: 60.0 mg/kg/injection, schedule: Q01DX005 (ip), vehicle: Klucel (hydroxypropylcellulose) (HPC)
[8] = dose: 120.0 mg/kg/injection, schedule: Q01DX005 (ip), vehicle: Klucel (hydroxypropylcellulose) (HPC)
[9] = dose: 240.0 mg/kg/injection, schedule: Q01DX005 (ip), vehicle: Klucel (hydroxypropylcellulose) (HPC)
[10] = dose: 50.0 mg/kg/injection, schedule: Q01DX005 (ip), vehicle: saline
[11] = dose: 100.0 mg/kg/injection, schedule: Q01DX005 (ip), vehicle: saline
[12] = dose: 200.0 mg/kg/injection, schedule: Q01DX005 (ip), vehicle: saline
[13] = dose: 60.0 mg/kg/injection, schedule: Q01DX005 (ip), vehicle: saline
[14] = dose: 120.0 mg/kg/injection, schedule: Q01DX005 (ip), vehicle: saline
[15] = dose: 240.0 mg/kg/injection, schedule: Q01DX005 (ip), vehicle: saline
[16] = dose: 50.0 mg/kg/injection, schedule: Q01DX005 (ip), vehicle: saline with Tween-80
[17] = dose: 100.0 mg/kg/injection, schedule: Q01DX005 (ip), vehicle: saline with Tween-80
[18] = dose: 200.0 mg/kg/injection, schedule: Q01DX005 (ip), vehicle: saline with Tween-80
[19] = dose: 100.0 mg/kg/injection, schedule: Q04DX003 (ip), vehicle: Klucel (hydroxypropylcellulose) (HPC)
[20] = dose: 200.0 mg/kg/injection, schedule: Q04DX003 (ip), vehicle: Klucel (hydroxypropylcellulose) (HPC)
[21] = dose: 400.0 mg/kg/injection, schedule: Q04DX003 (ip), vehicle: Klucel (hydroxypropylcellulose) (HPC)

Measured: T/C

COc1ccc2c(c1)c(C(=O)O)cc(=O)n2C
inactive: [1] 95 % of control | [2] 90 % of control | dose: 400.0 mg/kg/injection, schedule: Q01DX009 (ip), vehicle: saline with Tween-80 90 % of control

COC(=O)C(Cl)Cc1cncn1C (stereo not drawn)
inactive: [3] 94 % of control | [1] 92 % of control | [2] 93 % of control

COc1ccc(COC(=O)Sc2nc(C)cc(C)n2)cc1
inactive: [4] 101 % of control | [5] 100 % of control | [6] 102 % of control

CNC(=O)OCc1nc(-c2ccccc2)n(C)c1COC(=O)NC
inactive: dose: 12.5 mg/kg/injection, schedule: Q01DX005 (ip), vehicle: distilled water + Tween-80 98 % of control | dose: 25.0 mg/kg/injection, schedule: Q01DX005 (ip), vehicle: distilled water + Tween-80 107 % of control | dose: 50.0 mg/kg/injection, schedule: Q01DX005 (ip), vehicle: distilled water + Tween-80 112 % of control | dose: 100.0 mg/kg/injection, schedule: Q01DX005 (ip), vehicle: distilled water + Tween-80 116 % of control | dose: 200.0 mg/kg/injection, schedule: Q01DX005 (ip), vehicle: distilled water + Tween-80 119 % of control

Cc1cc2nc3cc(C)c(N)cc3[n+](-c3ccccc3)c2cc1N
inactive: dose: 6.25 mg/kg/injection, schedule: Q01DX005 (ip), vehicle: Klucel (hydroxypropylcellulose) (HPC) 109 % of control | dose: 12.5 mg/kg/injection, schedule: Q01DX005 (ip), vehicle: Klucel (hydroxypropylcellulose) (HPC) 116 % of control

CC(O)CC1(c2ccccc2)CNC(=O)NC1=O (stereo not drawn)
inactive: dose: 25.0 mg/kg/injection, schedule: Q01DX001 (ip), vehicle: Klucel (hydroxypropylcellulose) (HPC) 94 % of control | dose: 50.0 mg/kg/injection, schedule: Q01DX001 (ip), vehicle: Klucel (hydroxypropylcellulose) (HPC) 94 % of control | dose: 100.0 mg/kg/injection, schedule: Q01DX001 (ip), vehicle: Klucel (hydroxypropylcellulose) (HPC) 99 % of control and 106 % of control | dose: 400.0 mg/kg/injection, schedule: Q01DX001 (ip), vehicle: Klucel (hydroxypropylcellulose) (HPC) 92 % of control

CCCC/C=C\CCCCCCCCCC1=C(O)C(=O)C=C(OC)C1=O
inactive: dose: 25.5 mg/kg/injection, schedule: Q01DX005 (ip), vehicle: Klucel (hydroxypropylcellulose) (HPC) 116 % of control

CCN(CC)CC(=O)Nc1ccc2c(c1)C(=O)c1ccc(NC(=O)CN(CC)CC)cc1C2=O
inactive: [4] 90 % of control | dose: 50.0 mg/kg/injection, schedule: Q01DX005 (ip), vehicle: acid diluted with saline 100 % of control | [5] 93 % of control | dose: 100.0 mg/kg/injection, schedule: Q01DX005 (ip), vehicle: acid diluted with saline 103 % of control | [6] 90 % of control | dose: 200.0 mg/kg/injection, schedule: Q01DX005 (ip), vehicle: acid diluted with saline 106 % of control

c1cncc(-c2cc(-c3cc(-c4cccnc4)n[nH]3)[nH]n2)c1
inactive: [7] 103 % of control | [8] 103 % of control | [9] 91 % of control

CN(C)CCN(N)CCN(C)C
inactive: [10] 94 % of control | [11] 105 % of control | [12] 100 % of control

CCn1c(=O)c2[nH]c(I)nc2n(CC)c1=O
inactive: dose: 25.0 mg/kg/injection, schedule: Q01DX009 (ip), vehicle: Klucel (hydroxypropylcellulose) (HPC) 99 % of control | dose: 50.0 mg/kg/injection, schedule: Q01DX009 (ip), vehicle: Klucel (hydroxypropylcellulose) (HPC) 99 % of control | dose: 100.0 mg/kg/injection, schedule: Q01DX009 (ip), vehicle: Klucel (hydroxypropylcellulose) (HPC) 106 % of control

CN1NC1(C)C (stereo not drawn)
inactive: dose: 50.0 mg/kg/injection, schedule: Q04DX002 (ip), vehicle: saline 100 % of control | dose: 100.0 mg/kg/injection, schedule: Q04DX002 (ip), vehicle: saline 110 % of control | dose: 200.0 mg/kg/injection, schedule: Q04DX002 (ip), vehicle: saline 98 % of control

N#Cc1cc([N+](=O)[O-])c(Cl)c([N+](=O)[O-])c1Cl
inactive: dose: 3.13 mg/kg/injection, schedule: Q04DX003 (ip), vehicle: saline with Tween-80 100 % of control | dose: 6.25 mg/kg/injection, schedule: Q04DX003 (ip), vehicle: saline with Tween-80 100 % of control | dose: 12.5 mg/kg/injection, schedule: Q04DX003 (ip), vehicle: saline with Tween-80 100 % of control

O=C1OC2C(O1)C1(c3ccccc3)C(=O)C2(c2ccccc2)C(c2ccccc2)=C1c1ccccc1 (stereo not drawn)
inactive: dose: 6.25 mg/kg/injection, schedule: Q01DX009 (ip), vehicle: saline with Tween-80 107 % of control and 96 % of control | dose: 12.5 mg/kg/injection, schedule: Q01DX009 (ip), vehicle: saline with Tween-80 106 % of control and 94 % of control | dose: 25.0 mg/kg/injection, schedule: Q01DX009 (ip), vehicle: saline with Tween-80 101 % of control and 96 % of control | [3] 98 % of control and 105 % of control | [1] 89 % of control

COC(=O)CCSC(=O)Nc1ccc(C)cc1
inactive: [4] 101 % of control | [5] 100 % of control | [6] 105 % of control

CCOC(=O)NC(c1ccc(C(NC(=O)OCC)P(=O)(O)NC23CC4CC(CC(C4)C2)C3)cc1)P(=O)(O)NC12CC3CC(CC(C3)C1)C2 (stereo not drawn)
inactive: dose: 60.0 mg/kg/injection, schedule: Q01DX005 (ip), vehicle: saline with Tween-80 105 % of control | dose: 120.0 mg/kg/injection, schedule: Q01DX005 (ip), vehicle: saline with Tween-80 105 % of control | dose: 240.0 mg/kg/injection, schedule: Q01DX005 (ip), vehicle: saline with Tween-80 98 % of control

COc1cc(CN2CCN(CCO)CC2)c(O)c(CN2CCN(CCO)CC2)c1
inactive: [13] 108 % of control | [14] 108 % of control | [15] 102 % of control

O=S(=O)(O)CC(O)CN1CCN(CCO)CC1 (stereo not drawn)
inactive: [13] 100 % of control | [14] 100 % of control | [15] 98 % of control

O=C1c2cc([N+](=O)[O-])cc3cc([N+](=O)[O-])cc(c23)C(=O)N1CCCNCCNCCCN1C(=O)c2cc([N+](=O)[O-])cc3cc([N+](=O)[O-])cc(c23)C1=O
inactive: [16] 100 % of control | [17] 100 % of control | [18] 100 % of control

CC(=O)NC1c2ccccc2CCC1OC(C)=O (stereo not drawn)
inactive: [16] 99 % of control | [17] 99 % of control | [18] 99 % of control

N#Cc1c(Cl)cccc1N1CCSCC1
inactive: [7] 94 % of control | [8] 102 % of control | [9] 100 % of control

CNP1(NC)=NP(NC)(NC)=NP(NC)(NC)=NP(NC)(NC)=N1
inactive: [10] 115 % of control | [11] 110 % of control | [12] 104 % of control

CC1(C)C(C(=O)/C=C/c2ccccc2)C1[N+](=O)[O-] (stereo not drawn)
inactive: dose: 50.0 mg/kg/injection, schedule: Q04DX003 (ip), vehicle: Klucel (hydroxypropylcellulose) (HPC) 96 % of control | [19] 96 % of control | [20] 100 % of control | [21] 101 % of control

C=C(C)[C@@H]1CC[C@](C)(CCC#N)/C(=N\NC(N)=O)C1
inactive: [19] 99 % of control | [20] 102 % of control | [21] 89 % of control
